From US4340606A, “3-(p-Alkylsulfonylphenyl)oxazolidinone derivatives as antibacterial agents” (E. I. Du Pont de Nemours and Company, priority 1980, dated 1982)
In brackets after ≈: the same amount, converted by molar mass. Counter-ions that a name gives are not always drawn.

Key:
[1] = tested on: Staphylococcus epidermidis; experiment: 24-hour minimum inhibitory concentration, microdilution method, Mueller-Hinton broth; type: cell-based; details: S. epidermidis, read-out: In-Vitro MIC
Procedure: The compounds listed below in Table 1 were tested for in vivo and in vitro antibacterial activity. The twenty-four hour minimum inhibitory in vitro concentrations (MIC) for a test strain of Staphylococcus epidermidis of the compounds were determined using a standard microdilution method with Mueller-Hinton broth. This method is described in Conrath, Theodore B., 1972 Handbook of Microtiter Procedures, Dynatech Corporation, Cambridge, Mass., the disclosure of which is herein incorporated by reference. | ^1 24Hour minimum inhibitory concentration: determined by | microdilution method with S. epidermidis as the test organism.

Escherichia coli = experiment: in vivo antibacterial activity, mice infected intraperitoneally, oral dosing; details: oral at infection and 4 hours later, Reed-Muench, mortality, read-out: In-Vivo ED50, E. coli
Procedure: (§1) The in vivo antibacterial activity of the compounds was determined as follows.
(§2) Cultures of Staphylococcus aureus or Escherichia coli were grown from stored frozen stocks in trypticase soy broth (BBL), a standard bacteriological growth medium, with shaking until a turbidity of optical density (650μ) of 0.4-0.5 was attained. These cultures were centrifuged and resuspended in either 50% hog gastric mucin for Staphyloccus aureus or saline for Escherichia coli. These suspensions were injected intraperitoneally at dilutions calculated to cause 90-100% mortality within 7 days of the mice of the control groups.
(§3) The compounds were suspended or dissolved in 0.25% Methocel, 15 CPS, at various concentrations. Mice were dosed orally by intubation at the time of infection and again four hours later. Mortality was recorded daily until test termination. The estimated dose 50 (ED50) was calculated by the Reed-Muench method, as described in Reed, L. J. and Muench, H., American Journal of Hygiene, 27, 493-497 (1938), the disclosure of which is herein incorporated by reference.

Staphylococcus aureus = experiment: as above; details: oral at infection and 4 hours later, Reed-Muench, mortality, read-out: In-Vivo ED50, S. aureus
Procedure: as §1, §2, §3

anaerobic bacteria = experiment: inhibitory activity for anaerobic bacteria, agar dilution; type: cell-based; details: in words, from Table 3
Procedure: (§4) The inhibitory activity for anaerobic bacteria of 5-chloromethyl-3-(4-difluoromethylsulfonyl)phenyl-2-oxazolidinone and (1)-5-hydroxymethyl-3-(4-methylsulfonyl)phenyl-2-oxazolidinone was determined using the agar dilution method described in Barry, Arthur L., The Antimicrobic Susceptibility Test: Principles and Practices, 1976 Lea & Febiger, Philadelphia.

Bacteroides sp. = experiment: in-vitro susceptibility of anaerobic clinical isolates, agar dilution; type: cell-based; details: 48-hour, 32 isolates (chloromethyl compound), 28 isolates (hydroxymethyl compound)
Procedure: as §4
(§5) ^1 48hour minimum inhibitory concentration determined by agar dilutio

Gram positive cocci = experiment: as above; type: cell-based; details: 48-hour, 7 isolates tested for each compound
Procedure: as §4, §5

Clostridium sp. = experiment: as above; type: cell-based; details: 48-hour, 4 isolates tested for each compound
Procedure: as §4, §5

Fusobacterium sp. = experiment: as above; type: cell-based; details: 48-hour, 4 isolates tested for each compound
Procedure: as §4, §5

Neisseria sp. = experiment: in-vitro susceptibility of clinical isolates, agar dilution; type: cell-based; details: 24-hour, 35° C., 42 isolates
Procedure: (§6) The in-vitro antibacterial activity spectrum of (1)-5-Hydroxymethyl-3-(4-methylsulfonyl)phenyl-2-oxazolidinone, determined by an agar dilution procedure, is shown in table 2. This procedure is known in the art and can be summarized as follows. […] The agar plates were inoculated with a 0.001 ml calibrated loopful of bacterial inoculum diluted to contain 5×10^6 colony forming units (CFU) per ml. […] The test organisms included clinical bacterial isolates representing two gram positive and nine gram negative genera.
(§7) ^1 MIC: Minimum Inhibitory Concentration determined by agar dilution

Shigella sp. = experiment: as above; type: cell-based; details: 24-hour, 35° C., 9 isolates
Procedure: as §6, §7

Salmonella sp. = experiment: as above; type: cell-based; details: 24-hour, 35° C., 6 isolates
Procedure: as §6, §7

Staphylococci sp. = experiment: as above; type: cell-based; details: 24-hour, 35° C., 37 isolates
Procedure: as §6, §7

Streptococci sp. = experiment: as above; type: cell-based; details: 24-hour, 35° C., 12 isolates
Procedure: as §6, §7

Hemophilus influenzae = experiment: as above; type: cell-based; details: Haemophilus influenzae, 24-hour, 35° C., 4 isolates
Procedure: as §6, §7

Proteus sp. = experiment: as above; type: cell-based; details: 24-hour, 35° C., 88 isolates
Procedure: as §6, §7

Klebsiella sp. = experiment: as above; type: cell-based; details: 24-hour, 35° C., 68 isolates
Procedure: as §6, §7

E. coli = experiment: as above; type: cell-based; details: Escherichia coli, 24-hour, 35° C., 86 isolates
Procedure: as §6, §7

Providencia sp. = experiment: as above; type: cell-based; details: 24-hour, 35° C., 12 isolates
Procedure: as §6, §7

Enterobacter sp. = experiment: as above; type: cell-based; details: 24-hour, 35° C., 41 isolates
Procedure: as §6, §7

Pseudomonas sp. = experiment: as above; type: cell-based; details: 24-hour, 35° C., 78 isolates
Procedure: as §6, §7

Serratia sp. = experiment: as above; type: cell-based; details: 24-hour, 35° C., 44 isolates
Procedure: as §6, §7

`CS(=O)(=O)c1ccc(N2CC(CO)OC2=O)cc1` (racemic) [5-Hydroxymethyl-3-(4-methylsulfonylphenyl)-2-oxazolidinone] was tested. Which MIC [1] did it give?
The MIC was 12.5 µg/mL (≈ 46.1 µM).

And the ED50 (Escherichia coli)?
The ED50 was 40 mg/kg.

And the ED50 (Staphylococcus aureus)?
Its ED50 is 18 mg/kg.

Which results are given for `CS(=O)(=O)c1ccc(N2CC(COC(=O)CCC(=O)O)OC2=O)cc1` (racemic) [(dl)-3-(4-Methylsulfonylphenyl)-2-oxooxazolidin-5-ylmethyl 1,4-Butanedioic Acid Mono Ester, Mono Sodium Salt]?
MIC [1]: > 50 µg/mL; ED50 (Escherichia coli): 40 mg/kg; ED50 (Staphylococcus aureus): 26 mg/kg

Which ED50 (Staphylococcus aureus) does the source give for `CS(=O)(=O)c1ccc(N2CC(COC(=O)CCC(=O)O)OC2=O)cc1` (single isomer, unassigned) [l-3-(4-Methylsulfonylphenyl)-2-oxooxazolidin-5-ylmethyl 1,4-Butanediodic Acid Mono Ester, Mono Sodium Salt] here?
The ED50 was 20 mg/kg.

`C[C@H](N)C(=O)OCC1CN(c2ccc(S(C)(=O)=O)cc2)C(=O)O1` (stereo partly drawn) [5-(L)-Alanyloxymethyl-(1)-3-(4-methylsulfonyl)phenyl-2-oxazolidinone trifluoroacetic acid salt] was tested. Which MIC [1] did it give?
The MIC was 25 µg/mL.

And the ED50 (Staphylococcus aureus)?
The ED50 was 14 mg/kg.

How did the MIC [1] turn out when `CC(=O)OCC1CN(c2ccc(S(C)(=O)=O)cc2)C(=O)O1` (stereo not drawn) [5-Acetoxymethyl-3-(4-methylsulfonyl)phenyl-2-oxazolidinone] was run?
The MIC was over 50 µg/mL.

What about the ED50 (Staphylococcus aureus) of the same compound?
The ED50 was 100 mg/kg.

For `CS(=O)(=O)c1ccc(N2CC(CBr)OC2=O)cc1` (stereo not drawn) [5-Bromomethyl-3-(4-methylsulfonyl)phenyl-2-oxazolidinone], which MIC [1] is on record?
The MIC was 5 µg/mL (≈ 15 µM).

What does the source list for `O=C1OC(CCl)CN1c1ccc(S(=O)(=O)C(F)F)cc1` (stereo not drawn) [5-Chloromethyl-3-(4-difluoromethylsulfonylphenyl)-2-oxazolidinone]?
MIC [1]: 2.5 µg/mL (≈ 7.68 µM); ED50 (Staphylococcus aureus): 20 mg/kg; inhibition of anaerobic bacterial growth (anaerobic bacteria): potent inhibitors of anaerobic bacterial growth; MIC (Bacteroides sp.): 1.8 µg/mL (≈ 5.53 µM); MIC (Gram positive cocci): 0.7 µg/mL (≈ 2.15 µM); MIC (Clostridium sp.): 1 µg/mL (≈ 3.07 µM); MIC (Fusobacterium sp.): 0.06 µg/mL (≈ 0.184 µM)

For `CS(=O)(=O)c1ccc(N2CC(CCl)OC2=O)cc1` (stereo not drawn) [5-Chloromethyl-3-(4-methylsulfonylphenyl)-2-oxazolidinone], which MIC [1] is on record?
Its MIC is 5 µg/mL (≈ 17.3 µM).

And the ED50 (Escherichia coli)?
Its ED50 is 63 mg/kg.

What about the ED50 (Staphylococcus aureus) of the same compound?
The ED50 was 29 mg/kg.

With `O=C1OC(CCl)CN1c1ccc(S(=O)(=O)C(F)(F)F)cc1` (stereo not drawn) [5-Chloromethyl-3-(4-trifluoromethylsulfonylphenyl)-2-oxazolidinone] as the compound, how does the MIC [1] read?
The MIC was 4.7 µg/mL (≈ 13.7 µM).

What about the ED50 (Staphylococcus aureus) of the same compound?
Its ED50 is 105 mg/kg.

How did the MIC [1] turn out when `O=C1OC(CCl)CN1c1ccc(S(=O)(=O)C(F)(F)C(F)F)cc1` (stereo not drawn) [5-Chloromethyl-3-[4-(1,1,2,2-tetrafluoroethylsulfonyl)phenyl]-2-oxazolidinone] was run?
The MIC was 10 µg/mL (≈ 26.6 µM).

What about the ED50 (Staphylococcus aureus) of the same compound?
Its ED50 is 92 mg/kg.

What does the source list for `CS(=O)(=O)c1ccc(N2CC(CF)OC2=O)cc1` (stereo not drawn) [5-Fluoromethyl-3-(4-methylsulfonyl)phenyl-2-oxazolidinone]?
MIC [1]: 20 µg/mL (≈ 73.2 µM); ED50 (Staphylococcus aureus): 35 mg/kg

For `O=C1OC(CO)CN1c1ccc(S(=O)(=O)C(F)F)cc1` (stereo not drawn) [5-Hydroxymethyl-3-(4-difluoromethylsulfonylphenyl)-2-oxazolidinone], which MIC [1] is on record?
Its MIC is 3.1 µg/mL (≈ 10.1 µM).

What about the ED50 (Escherichia coli) of the same compound?
Its ED50 is 27 mg/kg.

And the ED50 (Staphylococcus aureus)?
Its ED50 is 23 mg/kg.

How did the MIC [1] turn out when `C[S+]([O-])c1ccc(N2CC(CO)OC2=O)cc1` (stereo not drawn) [5-Hydroxymethyl-3-(4-methylsulfinylphenyl)-2-oxazolidinone] was run?
The MIC was 50 µg/mL (≈ 196 µM).

What about the ED50 (Staphylococcus aureus) of the same compound?
Its ED50 is 27 mg/kg.

`O=C1OC(CO)CN1c1ccc(S(=O)(=O)C(F)(F)F)cc1` (stereo not drawn) [5-Hydroxymethyl-3-(4-trifluoromethylsulfonylphenyl)-2-oxazolidinone] was tested. Which MIC [1] did it give?
Its MIC is 12.5 µg/mL (≈ 38.4 µM).

What about the ED50 (Staphylococcus aureus) of the same compound?
The ED50 was 20 mg/kg.

How did the MIC [1] turn out when `O=C1OC(CO)CN1c1ccc(S(=O)(=O)C(F)(F)C(F)F)cc1` (stereo not drawn) [5-Hydroxymethyl-3-[4-(1,1,2,2-tetrafluoroethylsulfonyl)phenyl]-2-oxazolidinone] was run?
The MIC was 12.5 µg/mL (≈ 35 µM).

What about the ED50 (Staphylococcus aureus) of the same compound?
Its ED50 is 108 mg/kg.

For `CCS(=O)(=O)c1ccc(N2CC(CCl)OC2=O)cc1` (stereo not drawn) [5-chloromethyl-3-(4-ethylsulfonyl)phenyl-2-oxazolidinone], which MIC [1] is on record?
The MIC was 50 µg/mL (≈ 165 µM).

`C[S+]([O-])c1ccc(N2CC(CCl)OC2=O)cc1` (stereo not drawn) [5-chloromethyl-3-(4-methylsulfinyl)phenyl-2-oxazolidinone] was tested. Which MIC [1] did it give?
The MIC was 25 µg/mL (≈ 91.3 µM).

`CS(=O)(=O)c1ccc(N2C[C@H](CO)OC2=O)cc1` [R-(-)-3-(4-Methylsulfonylphenyl)-5-hydroxymethyl-2-oxazolidinone] was tested. Which MIC [1] did it give?
Its MIC is 12.5 µg/mL (≈ 46.1 µM).

What about the ED50 (Escherichia coli) of the same compound?
The ED50 was 25 mg/kg.

And the ED50 (Staphylococcus aureus)?
Its ED50 is 9 mg/kg.

And the MIC (Neisseria sp.)?
Its MIC is 10.5 µg/mL (≈ 38.7 µM).

What about the MIC (Shigella sp.) of the same compound?
Its MIC is 11.6 µg/mL (≈ 42.8 µM).

What about the MIC (Salmonella sp.) of the same compound?
The MIC was 16 µg/mL (≈ 59 µM).

What about the MIC (Staphylococci sp.) of the same compound?
The MIC was 3.8 µg/mL (≈ 14 µM).

And the MIC (Streptococci sp.)?
The MIC was 3.7 µg/mL (≈ 13.6 µM).

What about the MIC (Hemophilus influenzae) of the same compound?
The MIC was 16 µg/mL (≈ 59 µM).

What about the MIC (Proteus sp.) of the same compound?
Its MIC is 21.7 µg/mL (≈ 80 µM).

And the MIC (Klebsiella sp.)?
Its MIC is 37.5 µg/mL (≈ 138 µM).

And the MIC (E. coli)?
Its MIC is 21.7 µg/mL (≈ 80 µM).

What about the MIC (Providencia sp.) of the same compound?
The MIC was 26.7 µg/mL (≈ 98.4 µM).

What about the MIC (Enterobacter sp.) of the same compound?
Its MIC is 37.9 µg/mL (≈ 140 µM).

What about the MIC (Pseudomonas sp.) of the same compound?
The MIC was at least 128 µg/mL.

What about the MIC (Serratia sp.) of the same compound?
The MIC was at least 108 µg/mL.

What about the “inhibition of anaerobic bacterial growth” value (anaerobic bacteria) of the same compound?
Its value is “potent inhibitors of anaerobic bacterial growth”.

What about the MIC (Bacteroides sp.) of the same compound?
The MIC was 3.4 µg/mL (≈ 12.5 µM).

What about the MIC (Gram positive cocci) of the same compound?
The MIC was 1.3 µg/mL (≈ 4.79 µM).

What about the MIC (Clostridium sp.) of the same compound?
Its MIC is 7 µg/mL (≈ 25.8 µM).

What about the MIC (Fusobacterium sp.) of the same compound?
The MIC was 0.3 µg/mL (≈ 1.11 µM).
